The values below come from publication PMC10451299, “Phytochemical Constituents and Biological Activity of Wild and Cultivated Rosmarinus officinalis Hydroalcoholic Extracts” (Antioxidants, 2023).

Structures are written as SMILES. Marks after values point to notes of the source that are not given here.

One experiment relates to AChE. Particulars: cited from earlier work.
The nature of experiment [1]: FRAP (ferric ion reducing antioxidant power) assay. The conditions noted are these: mean ± SD, three experiments.
Experiment [2] is described as follows: DPPH radical scavenging assay. Particulars: mean ± SD, three experiments. The method, then:
The antiradical activity was determined using the stable 1,1-diphenyl-2-picrylhydrazyl radical (DPPH) following the protocol of Brand-Williams with some modifications reported by De Martino and coworkers.

Regarding `COc1ccc(-c2cc(=O)c3c(O)c(OC)c(OC)cc3o2)cc1` [salvigenin, Salvigenin], in the experiment on AChE, the “activity on AChE” value was “not active” and the “effect on the AChE enzyme” value is on record as “stimulating effect”.

Consider `Cc1c(C)c2c(c(C)c1O)CCC(C)(C(=O)O)O2` (stereo not shown) [Trolox, 6-hydroxy-2,5,7,8-tetramethylchroman-2-carboxylic acid], for which the FRAP in experiment [1] is listed as 5.48 ± 0.34 ^a mmol Fe^2+ Equivalents/g Extract. Besides, the “DPPH IC50 (concentration required to reduce the absorbance of DPPH by 50%)” value in experiment [2] is 3.65 ± 0.08 ^c µg/mL.
